The target in series [1] is T1, human GIP receptor (Homo sapiens, UniProt P48546).
T1 construct: host or cells: COS-7, transient transfection (calcium phosphate), cDNA in pCMV-Script
T1 sequence (P48546 22-466): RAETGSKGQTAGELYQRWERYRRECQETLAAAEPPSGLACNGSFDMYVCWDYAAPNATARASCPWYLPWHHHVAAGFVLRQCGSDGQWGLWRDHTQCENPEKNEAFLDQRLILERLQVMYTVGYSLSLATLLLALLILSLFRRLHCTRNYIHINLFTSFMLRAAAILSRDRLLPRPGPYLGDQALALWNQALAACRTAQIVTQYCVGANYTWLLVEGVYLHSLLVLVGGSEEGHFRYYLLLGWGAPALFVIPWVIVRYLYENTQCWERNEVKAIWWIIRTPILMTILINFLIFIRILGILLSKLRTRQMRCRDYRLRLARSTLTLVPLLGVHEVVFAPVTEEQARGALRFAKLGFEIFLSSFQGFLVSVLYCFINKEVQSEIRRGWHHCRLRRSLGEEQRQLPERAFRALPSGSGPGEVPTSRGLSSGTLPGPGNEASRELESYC
Nature of the series: 125I-human GIP competition binding assay, in the presence and absence of 2% HSA.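 On all read-outs here: nonspecific binding taken as radioligand bound to untransfected cells, IC50 obtained from nonlinear regression fits.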 The settings on record: for Fold change HSA (2%)/Casein (0.1%): IC50 (plus HSA)/IC50 (minus HSA); for Fold change in affinity, IC50 (plus HSA)/IC50 (minus HSA): presence vs absence of 2% HSA, proxy for albumin binding; for Binding (+/−HSA) Fold: fold change +HSA/−HSA.

Series [2] has as its target T1, human GIP receptor. The series is described as follows: cAMP accumulation assay, agonism (ligand alone). It is filed as cell-based. The settings on record: COS-7 cells, Table 1; for Emax: COS-7, intrinsic cAMP activity; for EC50: read-out: cAMP agonism nM (EC50). (In general: Cyclic AMP is a second messenger, typically raised through Gs and lowered through Gi signalling.)

The target of series [3] is T1, human GIP receptor. The series is described as follows: cAMP accumulation assay, antagonism of a GIP-mediated cAMP response (50-80% of max). It is filed as cell-based. The note with it: for Fold change of IC50 versus GIP(5-30)NH2: fold change of IC50 from GIP(5-30)NH2. The procedure: The day after, the cells were washed twice with Hepes buffered saline (HBS) buffer and incubated with HBS and 1 mM 3-isobutyl-1-methylxanthine (IBMX) for 30 min at 37° C. […] The HitHunter™ cAMP XS assay (DiscoveRx) was carried out according to the manufacturer's instructions.

Setting [4] is: binding in 0.1% casein (absence of HSA), log value, read-out: logIC50 0.1% casein (converted).
Where [5] appears, read: antagonism of GIP-mediated cAMP response, COS-7 cells, read-out: cAMP accumulation IC50.
Where [6] appears, read: transiently transfected COS-7 cells, Table 1 and text, read-out: cAMP antagonism nM (IC50, antagonistic potency).
Where [7] appears, read: heterologous competition binding, transiently transfected COS-7 cells expressing the human GIP receptor, read-out: Binding.

Molecules are shown by their SMILES. Peptide text beside a SMILES is read from it. * marks the point of attachment. C16 diacid = O=C(O)CCCCCCCCCCCCCCC(=O)*; Palmitoyl = CCCCCCCCCCCCCCCC(=O)*

Broadly, the Emax is the maximal effect, on the per cent scale that the assay sets. Broadly, the EC50 is the concentration at which the effect is half-maximal. The term Ki denotes a dissociation constant, usually derived from enzyme kinetics or from competition with a known ligand.

With `CC[C@H](C)[C@H](NC(=O)[C@H](CO)NC(=O)[C@H](Cc1ccc(O)cc1)NC(=O)[C@H](CC(=O)O)NC(=O)[C@H](CO)NC(=O)[C@@H](NC(=O)[C@H](Cc1ccccc1)NC(=O)[C@@H](NC(=O)CCCCCCCCCCCCC(=O)O)[C@@H](C)O)[C@@H](C)CC)C(=O)N[C@@H](C)C(=O)N[C@@H](CCSC)C(=O)N[C@@H](CC(=O)O)C(=O)N[C@@H](CCCCN)C(=O)N[C@H](C(=O)N[C@@H](Cc1c[nH]cn1)C(=O)N[C@@H](CCC(N)=O)C(=O)N[C@@H](CCC(N)=O)C(=O)N[C@@H](CC(=O)O)C(=O)N[C@@H](Cc1ccccc1)C(=O)N[C@H](C(=O)N[C@@H](CC(N)=O)C(=O)N[C@@H](Cc1c[nH]c2ccccc12)C(=O)N[C@@H](CC(C)C)C(=O)N[C@@H](CC(C)C)C(=O)N[C@@H](C)C(=O)N[C@@H](CCC(N)=O)C(=O)N[C@@H](CCCCN)C(N)=O)C(C)C)[C@@H](C)CC` [AT136, [hGIP(5-30)NH2—C14diacid/5]], on human GIP receptor [1], the “Affinity compared to GIP(3-30)NH2 (in words)” value is “affinities in the same range as GIP(3-30)NH2”; the “Fold change HSA (2%)/Casein (0.1%)” value was 15.7; the “Fold change in affinity, IC50 (plus HSA)/IC50 (minus HSA)” value is recorded as 15.7 fold. For the same compound, the IC50 on human GIP receptor [1] (setting [4]) is 50.1 nM. At human GIP receptor [2], the Emax stood at 20% and the half-maximal effective concentration (EC50) turned out to be 8 nM. Further, the “Ability to antagonize the GIP-mediated cAMP response (in words)” value (“Ability” for short) on human GIP receptor [3] was “high potent antagonists”.
For the compound `CC[C@H](C)[C@H](NC(=O)[C@H](CO)NC(=O)[C@H](Cc1ccc(O)cc1)NC(=O)[C@H](CCCCNC(=O)CCCCCCCCCCCCCCC(=O)O)NC(=O)[C@H](CO)NC(=O)[C@@H](NC(=O)[C@H](Cc1ccccc1)NC(=O)[C@@H](N)[C@@H](C)O)[C@@H](C)CC)C(=O)N[C@@H](C)C(=O)N[C@@H](CCSC)C(=O)N[C@@H](CC(=O)O)C(=O)N[C@@H](CCCCN)C(=O)N[C@H](C(=O)N[C@@H](Cc1c[nH]cn1)C(=O)N[C@@H](CCC(N)=O)C(=O)N[C@@H](CCC(N)=O)C(=O)N[C@@H](CC(=O)O)C(=O)N[C@@H](Cc1ccccc1)C(=O)N[C@H](C(=O)N[C@@H](CC(N)=O)C(=O)N[C@@H](Cc1c[nH]c2ccccc12)C(=O)N[C@@H](CC(C)C)C(=O)N[C@@H](CC(C)C)C(=O)N[C@@H](C)C(=O)N[C@@H](CCC(N)=O)C(=O)N[C@@H](CCCCN)C(N)=O)C(C)C)[C@@H](C)CC` [AT171, [hGIP(5-30)NH2[D9K]-C16diacid/9]] (H-TFISK(C16 diacid)YSIAMDKIHQQDFVNWLLAQK-NH2; N-terminus assumed), the “Fold change HSA (2%)/Casein (0.1%)” value on human GIP receptor [1] is on record as 8.3. Also, the IC50 on human GIP receptor [1] (setting [4]) was 79.4 nM; at human GIP receptor [3] (setting [5]), 31.6 nM; on human GIP receptor [3] (setting [6]) it was 35 nM. Further, the “Binding (+/−HSA) Fold” value at human GIP receptor [1] is given as 6.3. Moreover, the “Fold change in affinity, IC50 (plus HSA)/IC50 (minus HSA)” value on human GIP receptor [1] is 8.3 fold. This compound also came in with an Emax at human GIP receptor [2] of 0%. Besides, at human GIP receptor [3], the “Fold change of IC50 versus GIP(5-30)NH2” value is 1.1.
Take `CCCCCCCCCCCCCC(=O)N[C@H](C(=O)N[C@@H](Cc1ccccc1)C(=O)N[C@H](C(=O)N[C@@H](CO)C(=O)N[C@@H](CC(=O)O)C(=O)N[C@@H](Cc1ccc(O)cc1)C(=O)N[C@@H](CO)C(=O)N[C@H](C(=O)N[C@@H](C)C(=O)N[C@@H](CCSC)C(=O)N[C@@H](CC(=O)O)C(=O)N[C@@H](CCCCN)C(=O)N[C@H](C(=O)N[C@@H](Cc1c[nH]cn1)C(=O)N[C@@H](CCC(N)=O)C(=O)N[C@@H](CCC(N)=O)C(=O)N[C@@H](CC(=O)O)C(=O)N[C@@H](Cc1ccccc1)C(=O)N[C@H](C(=O)N[C@@H](CC(N)=O)C(=O)N[C@@H](Cc1c[nH]c2ccccc12)C(=O)N[C@@H](CC(C)C)C(=O)N[C@@H](CC(C)C)C(=O)N[C@@H](C)C(=O)N[C@@H](CCC(N)=O)C(=O)N[C@@H](CCCCN)C(N)=O)C(C)C)[C@@H](C)CC)[C@@H](C)CC)[C@@H](C)CC)[C@@H](C)O` [AT121, [hGIP(5-30)NH2—C14/5]]: the “Affinity compared to GIP(3-30)NH2 (in words)” value on human GIP receptor [1] was “affinities in the same range as GIP(3-30)NH2”. Moreover, on human GIP receptor [1], the “Fold change HSA (2%)/Casein (0.1%)” value was determined as 5.7. Also, the figures for the IC50 on human GIP receptor [1] (setting [4]) and on human GIP receptor [3] (setting [6]) were 158 nM and 54 nM, respectively. At human GIP receptor [2], the Emax amounted to 0%. Moreover, at human GIP receptor [3], the “Ability” value is listed as “high potent antagonists”.
Turning to `CC[C@H](C)[C@H](NC(=O)[C@H](CO)NC(=O)[C@H](Cc1ccc(O)cc1)NC(=O)[C@H](CC(=O)O)NC(=O)[C@H](CO)NC(=O)[C@@H](NC(=O)[C@H](Cc1ccccc1)NC(=O)[C@@H](NC(=O)CCCCCCCCCCCCCCC(=O)O)[C@@H](C)O)[C@@H](C)CC)C(=O)N[C@@H](C)C(=O)N[C@@H](CCSC)C(=O)N[C@@H](CC(=O)O)C(=O)N[C@@H](CCCCN)C(=O)N[C@H](C(=O)N[C@@H](Cc1c[nH]cn1)C(=O)N[C@@H](CCC(N)=O)C(=O)N[C@@H](CCC(N)=O)C(=O)N[C@@H](CC(=O)O)C(=O)N[C@@H](Cc1ccccc1)C(=O)N[C@H](C(=O)N[C@@H](CC(N)=O)C(=O)N[C@@H](Cc1c[nH]c2ccccc12)C(=O)N[C@@H](CC(C)C)C(=O)N[C@@H](CC(C)C)C(=O)N[C@@H](C)C(=O)N[C@@H](CCC(N)=O)C(=O)N[C@@H](CCCCN)C(N)=O)C(C)C)[C@@H](C)CC` [AT137, [hGIP(5-30)NH2—C16diacid/5]], at human GIP receptor [1], the “Affinity compared to GIP(3-30)NH2 (in words)” value is “affinities in the same range as GIP(3-30)NH2”, the “Fold change HSA (2%)/Casein (0.1%)” value is 1.9 and the “Binding (+/−HSA) Fold” value is 2.0. The IC50 on human GIP receptor [1] (setting [4]) was 316 nM. In addition, the IC50 at human GIP receptor [1] (setting [7]) was 286 nM. Further, the Ki on human GIP receptor [1] (presence of 2% HSA) was found to be 117 nM. Besides, on human GIP receptor [2], the Emax is 12% and the EC50 turned out to be 18 nM. For the same compound, at human GIP receptor [3], the “Ability” value is on record as “high potent antagonists” and the “Fold change of IC50 versus GIP(5-30)NH2” value was 3.7. The IC50 on human GIP receptor [3] (setting [5]) was found to be 102 nM. Besides, on human GIP receptor [3] (setting [6]), the IC50 was 182 nM.
Consider `CCCCCCCCCCCCCCCC(=O)N[C@H](C(=O)N[C@@H](Cc1ccccc1)C(=O)N[C@H](C(=O)N[C@@H](CO)C(=O)N[C@@H](CC(=O)O)C(=O)N[C@@H](Cc1ccc(O)cc1)C(=O)N[C@@H](CO)C(=O)N[C@H](C(=O)N[C@@H](C)C(=O)N[C@@H](CCSC)C(=O)N[C@@H](CC(=O)O)C(=O)N[C@@H](CCCNC(=N)N)C(=O)N[C@H](C(=O)N[C@@H](CCCCN)C(=O)N[C@@H](CCC(N)=O)C(=O)N[C@@H](CCC(N)=O)C(=O)N[C@@H](CC(=O)O)C(=O)N[C@@H](Cc1ccccc1)C(=O)N[C@H](C(=O)N[C@@H](CC(N)=O)C(=O)N[C@@H](Cc1c[nH]c2ccccc12)C(=O)N[C@@H](CC(C)C)C(=O)N[C@@H](CC(C)C)C(=O)N[C@@H](C)C(=O)N[C@@H](CCC(N)=O)C(=O)N[C@@H](CCCNC(=N)N)C(N)=O)C(C)C)[C@@H](C)CC)[C@@H](C)CC)[C@@H](C)CC)[C@@H](C)O` [AT133, [hGIP(5-30)NH2[K16R; H18K; K30R]-C16/5]] (Palmitoyl-TFISDYSIAMDRIKQQDFVNWLLAQR-NH2), for which the “Fold change HSA (2%)/Casein (0.1%)” value at human GIP receptor [1] is given as 1.3. The IC50 on human GIP receptor [1] (setting [4]) is 1580 nM; on human GIP receptor [1] (setting [7]) it was 1720 nM. For the same compound, the Emax at human GIP receptor [2] came out at 0%. For the same compound, on human GIP receptor [3], the “Ability” value is reported as “failed to antagonize”.

The values above are taken from patent US11572399B2, “Long-acting GIP peptide analogues” (University of Copenhagen, priority 2017, dated 2023).
